Common to all, as to type: cell-based
Test [1] has as its target T1, ER (Homo sapiens, UniProt P03372).
T1 construct: endogenous in cells; probably T47D or MCF-7
T1 sequence (P03372 1-595): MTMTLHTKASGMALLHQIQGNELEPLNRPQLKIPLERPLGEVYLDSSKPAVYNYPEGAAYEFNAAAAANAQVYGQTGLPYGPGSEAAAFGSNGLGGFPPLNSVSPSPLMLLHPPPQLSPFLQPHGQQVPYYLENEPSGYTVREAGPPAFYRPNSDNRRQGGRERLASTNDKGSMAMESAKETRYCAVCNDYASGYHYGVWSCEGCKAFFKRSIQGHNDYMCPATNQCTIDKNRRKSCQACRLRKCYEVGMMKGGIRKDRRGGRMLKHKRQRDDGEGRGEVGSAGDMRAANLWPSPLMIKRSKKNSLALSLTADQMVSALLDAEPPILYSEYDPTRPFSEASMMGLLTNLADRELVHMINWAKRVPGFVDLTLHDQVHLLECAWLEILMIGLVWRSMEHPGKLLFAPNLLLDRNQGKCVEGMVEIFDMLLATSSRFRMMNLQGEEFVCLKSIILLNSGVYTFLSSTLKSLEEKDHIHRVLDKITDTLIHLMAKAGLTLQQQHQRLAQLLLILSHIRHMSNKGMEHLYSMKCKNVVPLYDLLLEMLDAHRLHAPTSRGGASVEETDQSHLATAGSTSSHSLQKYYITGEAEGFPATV
The test is described as follows: In-cell Western (ICW) ER degradation assay in MCF-7 cells. The following applies: 16 hrs. The method, then:
(§1) ERa degradative activity of compounds can be assessed in MCF-7 and T47D Cells. MCF-7 and T47D cell are seeded and are subsequently treated with the compounds at certain concentrations (e.g., 0.02 to 300 nM). DMSO can be used as vehicle control. Cells are fixed and are blocked with Intercept (PBS) Blocking Buffer (e.g., Li—COR, Odyssey Blocking Buffer), and are stained with ER (e.g., 1:500, Cell signaling) primary antibody for overnight at cold room. Secondary Antibody (e.g., IRDye 800CW Goat anti-Rabbit IgG) and CellTag 700 Stain are added in Intercept (PBS) Blocking Buffer. Finally, cell plate is placed in incubator to dry. Image and signal are captured on Odyssey® DLx Imaging System.
(§2) In-cell Western (ICW) assays in MCF-7 and T47D cell lines.
(§3) Procedures for ICW assays
(§4) In vitro Assay: MCF-7 and T47D ICW assay
(§5) Day 3: After 16 hrs of compounds treatment, cells were fixed by 4% PFA and permeabilized with elution buffer (0.1% Triton X-100 in 1% PBS Solution). Subsequently, cells were blocked with Intercept (PBS) Blocking Buffer (Li—COR, Odyssey Blocking Buffer), and were stained with ER (1:500, Cell signaling) primary antibody for overnight at cold room.
(§6) Day 4: Remove the buffer, add IRDye 800CW Goat anti-Rabbit IgG Secondary Antibody (1:2000) and CellTag 700 Stain (1:500) in Intercept (PBS) Blocking Buffer. Finally, cell plate is placed in incubator to dry. Image and signal were captured on Odyssey® DLx Imaging System.

The target in test [2] is T1, ER. Nature of the test: In-cell Western (ICW) ER degradation assay in T47D cells. The following applies: T47D cells, 16 hrs. The protocol: as §1, §2, §3, §4, §5, §6
Test [3] concerns the target T1, ER. Nature of the test: Western blot analysis (compounds B1-B126). The following applies: ER degradation, read-out: Traditional Western Degradation potency (DC50). The method, then: Western Blot Analysis. The cells that are treated with the compounds are lysed in Radioimmunoprecipitation Assay Protein Lysis and Extraction Buffer (e.g., 25 mmol/L Tris.HCl, pH 7.6, 150 mmol/L NaCl, 1% Nonidet P-40, 1% sodium deoxycholate, and 0.1% sodium dodecyl sulfate) containing proteinase inhibitor cocktail. Equal amounts of total protein are electrophoresed through 10% SDS-polyacrylamide gels after determination of protein concentration by BCA assay. The separated protein bands are transferred onto PVDF membranes and blotted against different antibodies. The blots are scanned, and the band intensities are quantified (e.g., by using GelQuant.NET software provided by biochemlabsolutions.com). The relative mean intensity of target proteins is expressed after normalization to the intensity of glyceraldehyde-3-phosphate dehydrogenase bands.
Western Blot Analysis. Western blot analysis was performed essentially as described previously. The cells treated with indicated compounds were lysed in Radioimmunoprecipitation Assay Protein Lysis and Extraction Buffer (25 mmol/L Tris.HCl, pH 7.6, 150 mmol/L NaCl, 1% Nonidet P-40, 1% sodium deoxycholate, and 0.1% sodium dodecyl sulfate) containing proteinase inhibitor cocktail (Roche Diagnostics, Mannheim, Germany). Equal amounts of total protein were electrophoresed through 10% SDS-polyacrylamide gels after determination of protein concentration by BCA assay (Fisher Scientific, Pittsburgh, PA). The separated protein bands were transferred onto PVDF membranes (GE Healthcare Life Sciences, Marlborough, MA) and blotted against different antibodies, as indicated. The blots were scanned, and the band intensities were quantified using GelQuant.NET software provided by biochemlabsolutions.com. The relative mean intensity of target proteins was expressed after normalization to the intensity of glyceraldehyde-3-phosphate dehydrogenase bands.
A general note: Immunoblotting shows a protein as a band on a membrane.

Test [4] deals with T1, ER. The test is described as follows: In-cell western blot analysis, relative ER percentage (compounds B1-B126). Conditions: ER degradation, 16 hours, read-out: ICW DC50. The method in brief: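 Readout was a two-colour infrared in-cell western of formaldehyde-fixed cells after 16 h compound exposure at 0.5% DMSO, with 40,000 or 10,000 cells/well plated the previous night. Relative ER percentage compares treated wells against untreated/DMSO-treated wells taken as 100%.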

Test [5] in a line: Cell growth assay, WST-8 (compounds B1-B126). The following applies: 96 h; T47D cell line, WST-8, 4 days; read-out: Cell growth inhibition in T47D cell line IC50. In short, it runs like this:
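Read-out is WST-8 absorbance at 450 nm (2.5 h, 37° C) as a fraction of vehicle control, from three separate repeats. Compound exposure lasted 4 days, starting one day after plating 1500 cells/well.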
Background: Formazan colour is commonly taken as a measure of viable cells.

Molecules are shown by their SMILES.

For 9 compounds, Dmax, DC50 and IC50 results are on record in patent US20260256925A1, “INDAZOLE DERIVATIVES AS ESTROGEN RECEPTOR DEGRADERS” (REGENTS OF THE UNIVERSITY OF MICHIGAN, priority 2022, published 2026).

As usually defined, the Dmax is the greatest extent of degradation seen. Usually DC50 stands for the concentration at which degradation of the target reaches its halfway point. For the compound `C[C@@H]1Cc2c(ccc3[nH]ncc23)[C@@H](c2ccc(N3CCC4(CC3)CC(CN3CCN5c6cc7c(cc6OC[C@@H]5C3)C(=O)N([C@@H]3CCC(=O)NC3=O)C7)C4)cn2)N1CC1(F)CC1` [Compound A12, (R)-3-((S)-3-((7-(6-((6S,8R)-7-((1-fluorocyclopropyl)methyl)-8-methyl-6,7,8,9-tetrahydro-3H-pyrazolo[4,3-f]isoquinolin-6-yl)pyridin-3-yl)-7-azaspiro[3.5]nonan-2-yl)methyl)-8-oxo-1,2,3,4,4a,5,8,10-octahydro-9H-pyrazino[1′,2′: 4,5][1,4]oxazino[2,3-f]isoindol-9-yl)piperidine-2,6-dione], the maximal degradation (Dmax) at ER [1] (MCF7, MCF-7 cells, read-out: ER MCF7 ICW Dmax (%)) was more than 75%; on ER [2] (T47D, read-out: ER T47D ICW Dmax (%)), more than 75%. In addition, the DC50 on ER [1] (MCF-7 cells, read-out: ER MCF7 ICW DC50) is less than 1 nM; at ER [2] it was less than 1 nM. Regarding `C[C@@H]1Cc2c(ccc3[nH]ncc23)[C@@H](c2c(F)cc([C@H]3CC[C@@H](C(=O)N4CCC(N5Cc6cc7c(cc6C5)C(=O)N(C5CCC(=O)NC5=O)C7=O)CC4)CC3)cc2F)N1CC(F)F` (stereo partly drawn) [Compound B1, 6-(1-((1R,4s)-4-(4-((6S,8R)-7-(2,2-difluoroethyl)-8-methyl-6,7,8,9-tetrahydro-3H-pyrazolo[4,3-f]isoquinolin-6-yl)-3,5-difluorophenyl)cyclohexane-1-carbonyl)piperidin-4-yl)-2-(2,6-dioxopiperidin-3-yl)-6,7-dihydropyrrolo[3,4-f]isoindole-1,3(2H,5H)-dione], the DC50 at ER [3] was less than 10 nM.

Turning to `C[C@@H]1Cc2c(ccc3[nH]ncc23)[C@@H](c2c(F)cc([C@H]3CC[C@H](C(=O)N4CCC(N5Cc6cc7c(cc6C5)C(=O)N(C5CCC(=O)NC5=O)C7=O)CC4)CC3)cc2F)N1CC(F)F` (stereo partly drawn) [Compound B2, 6-(1-((1S,4r)-4-(4-((6S,8R)-7-(2,2-difluoroethyl)-8-methyl-6,7,8,9-tetrahydro-3H-pyrazolo[4,3-f]isoquinolin-6-yl)-3,5-difluorophenyl)cyclohexane-1-carbonyl)pipcridin-4-yl)-2-(2,6-dioxopiperidin-3-yl)-6,7-dihydropyrrolo[3,4-f]isoindole-1,3(2H,5H)-dione], at ER [3], the DC50 is less than 10 nM. On the same count and under the same terms, the same measure for `C[C@@H]1Cc2c(ccc3[nH]ncc23)[C@@H](c2c(F)cc([C@H]3CC[C@H](C(=O)N4CC(CN5Cc6cc7c(cc6C5)C(=O)N(C5CCC(=O)NC5=O)C7=O)C4)CC3)cc2F)N1CC(F)F` (stereo partly drawn) [Compound B3, 6-((1-((1S,4r)-4-(4-((6S,8R)-7-(2,2-difluoroethyl)-8-methyl-6,7,8,9-tetrahydro-3H-pyrazolo[4,3-f]isoquinolin-6-yl)-3,5-difluorophenyl)cyclohexane-1-carbonyl)azetidin-3-yl)methyl)-2-(2,6-dioxopiperidin-3-yl)-6,7-dihydropyrrolo[3,4-f]isoindole-1,3(2H,5H)-dione]: more than 100 nM; for `C[C@@H]1Cc2c(ccc3[nH]ncc23)[C@@H](c2c(F)cc(N3CCC4(CC3)CN(C(=O)CN3Cc5cc6c(cc5C3)C(=O)N(C3CCC(=O)NC3=O)C6=O)C4)cc2F)N1CC(F)F` (stereo partly drawn) [Compound B4, 6-(2-(7-(4-((6S,8R)-7-(2,2-difluoroethyl)-8-methyl-6,7,8,9-tetrahydro-3H-pyrazolo[4,3-f]isoquinolin-6-yl)-3,5-difluorophenyl)-2,7-diazaspiro[3.5]nonan-2-yl)-2-oxoethyl)-2-(2,6-dioxopiperidin-3-yl)-6,7-dihydropyrrolo[3,4-f]isoindole-1,3(2H,5H)-dione]: less than 10 nM; for `C[C@@H]1Cc2c(ccc3[nH]ncc23)[C@@H](c2c(F)cc(N3CCC4(CCN(CC(=O)N5Cc6cc7c(cc6C5)C(=O)N(C5CCC(=O)NC5=O)C7=O)CC4)CC3)cc2F)N1CC(F)F` (stereo partly drawn) [Compound B5, 6-(2-(9-(4-((6S,8R)-7-(2,2-difluoroethyl)-8-methyl-6,7,8,9-tetrahydro-3H-pyrazolo[4,3-f]isoquinolin-6-yl)-3,5-difluorophenyl)-3,9-diazaspiro[5.5]undecan-3-yl)acetyl)-2-(2,6-dioxopiperidin-3-yl)-6,7-dihydropyrrolo[3,4-f]isoindole-1,3(2H,5H)-dione]: 10 to 100 nM. As usually defined, the IC50 is the concentration that gives 50% inhibition. For the compound `C[C@@H]1Cc2c(ccc3[nH]ncc23)[C@@H](c2cnc(N3CCC4(CCC(CN5CCC6(CC5)COc5c6ccc6c5CN([C@H]5CCC(=O)NC5=O)C6=O)CO4)CC3)nc2)N1CC(F)(F)F` (stereo partly drawn) [Compound B126, (3S)-3-(1′-((9-(5-((6S,8R)-8-methyl-7-(2,2,2-trifluoroethyl)-6,7,8,9-tetrahydro-3H-pyrazolo[4,3-f]isoquinolin-6-yl)pyrimidin-2-yl)-1-oxa-9-azaspiro[5.5]undecan-3-yl)methyl)-6-oxo-6,8-dihydro-2H,7H-spiro[furo [2,3-e]isoindole-3,4′-piperidin]-7-yl)piperidine-2,6-dione], the half-maximal degradation concentration (DC50) on ER [4] was less than 10 nM. Also, the IC50 in test [5] was less than 1 nM.

Turning to `C[C@@H]1Cc2c(ccc3[nH]ncc23)[C@@H](c2ccc(N3CCC4(CCC(CN5CCN6c7ccc8c(c7OCC6C5)CN([C@H]5CCC(=O)NC5=O)C8=O)CO4)CC3)nn2)N1CC(F)(F)F` (stereo partly drawn) [Compound B127, (3S)-3-(7-((9-(6-((6S,8R)-8-methyl-7-(2,2,2-trifluoroethyl)-6,7,8,9-tetrahydro-3H-pyrazolo[4,3-f]isoquinolin-6-yl)pyridazin-3-yl)-1-oxa-9-azaspiro[5.5]undecan-3-yl)methyl)-1-oxo-1,3,5,5a,6,7,8,9-octahydro-2H-pyrazino[1′,2′:4,5][1,4]oxazino[2,3-e]isoindol-2-yl)piperidine-2,6-dione], the DC50 at ER [4] was less than 10 nM. In addition, the IC50 in test [5] was less than 1 nM. For the compound `C[C@@H]1Cc2c(ccc3[nH]ncc23)[C@@H](c2ccc(N3CCC4(CCC(CN5CCC6(CC5)COc5c6ccc6c5CN([C@H]5CCC(=O)NC5=O)C6=O)CO4)CC3)nn2)N1CC(F)(F)F` (stereo partly drawn) [Compound B128, (3S)-3-(1′-((9-(6-((6S,8R)-8-methyl-7-(2,2,2-trifluoroethyl)-6,7,8,9-tetrahydro-3H-pyrazolo[4,3-f]isoquinolin-6-yl)pyridazin-3-yl)-1-oxa-9-azaspiro[5.5]undecan-3-yl)methyl)-6-oxo-6,8-dihydro-2H,7H-spiro[furo[2,3-e]isoindole-3,4′-piperidin]-7-yl)piperidine-2,6-dione], at ER [4], the half-maximal degradation concentration (DC50) was less than 10 nM. The IC50 in test [5] was less than 1 nM.
